The text below walks through data of patent publication US20240150321A1, “PYRAZOLYLSULFONAMIDE COMPOUNDS AND THEIR USE IN THERAPY” (HOTSPOT THERAPEUTICS, INC., priority 2022, published 2024).

SMILES strings stand for the structures. Where two headings read alike, the source gives them in different places.

One assay concerns the target Avi-tagged FL MALT-1 (Homo sapiens (Human), UniProt Q9UDY8). The assay is described as follows: MALT-1 Fluorogenic Peptide Cleavage Assay (MALT1 inhibition assay). Conditions: Ac-LRSR-AMC peptide substrate, 30 min pre-incubation, 90 min reaction at room temperature. Format: biochemical. The method in brief: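 Cleavage of Ac-LRSR-AMC, read as fluorescence at 342/441 nm after 90 min at room temperature, with substrate working stocks of 50 μM (Km) or 280 μM (10×Km). Enzyme, Avi-tagged full-length MALT-1 (40 nM stock), was first pre-incubated 30 min with compound in citrate/HEPES pH 6.89 buffer with TCEP, EDTA, CHAPS and 2% DMSO; IC50 fitted from normalised % inhibition.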

Assay [1] relates to NF-kB reporter in Jurkat cells. The assay is described as follows: NF-kB reporter assay in Jurkat cells stimulated with aCD3/aCD28/PMA. Format: cell-based. Conditions: read-out: NF-kB Reporter Assay IC50. A digest of the protocol:
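Luminescence (One-Glo) from the NF-kB reporter yielded IC50 values. Stimulation lasted 4 h at 37° C with aCD3, aCD28 and PMA (final 5, 5 and 0.03 […]), after 1 h compound pre-exposure of 25,000 Jurkat cells per well in serum-free RPMI.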
In general terms: Reporter assays use an easily measured gene product as a stand-in for the process of interest.

[2] abbreviates: Homo sapiens, Jurkat cells, 1 hr compound pre-incubation, aCD3/aCD28/PMA stimulation 4 hr, One-Glo readout.
[3] abbreviates: Jurkat cells, 1 hr compound pre-incubation, aCD3/aCD28/PMA stimulation 4 hr, One-Glo readout.

Sequence of Avi-tagged FL MALT-1 (Q9UDY8 whole entry): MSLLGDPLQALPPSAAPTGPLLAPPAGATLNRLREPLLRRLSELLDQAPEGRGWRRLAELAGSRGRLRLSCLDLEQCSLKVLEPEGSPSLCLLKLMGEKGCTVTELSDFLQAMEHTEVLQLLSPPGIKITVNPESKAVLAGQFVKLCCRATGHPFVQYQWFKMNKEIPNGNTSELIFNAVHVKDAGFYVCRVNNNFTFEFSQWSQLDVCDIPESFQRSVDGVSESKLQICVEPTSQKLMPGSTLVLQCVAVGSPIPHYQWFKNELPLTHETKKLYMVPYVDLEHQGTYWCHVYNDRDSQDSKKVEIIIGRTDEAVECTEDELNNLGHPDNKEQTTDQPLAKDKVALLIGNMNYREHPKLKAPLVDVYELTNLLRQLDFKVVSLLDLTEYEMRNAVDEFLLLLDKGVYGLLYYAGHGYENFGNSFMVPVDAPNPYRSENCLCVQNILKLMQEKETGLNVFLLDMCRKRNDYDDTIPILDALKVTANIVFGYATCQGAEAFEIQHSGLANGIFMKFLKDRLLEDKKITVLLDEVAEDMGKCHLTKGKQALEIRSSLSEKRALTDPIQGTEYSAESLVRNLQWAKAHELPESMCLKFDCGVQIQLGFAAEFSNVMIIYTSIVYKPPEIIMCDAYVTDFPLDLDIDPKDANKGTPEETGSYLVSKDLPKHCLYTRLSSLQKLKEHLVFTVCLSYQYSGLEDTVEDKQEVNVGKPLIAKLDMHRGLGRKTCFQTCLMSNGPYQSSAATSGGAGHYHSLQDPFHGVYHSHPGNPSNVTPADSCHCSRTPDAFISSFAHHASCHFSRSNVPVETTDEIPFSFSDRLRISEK

Turning to `[2H]c1cnc(-n2cc(S(=O)(=O)Nc3cccc4cnn(C([2H])([2H])[2H])c34)cn2)cc1C(F)(F)F` [Compound I-338, N-(1-(methyl-d3)-1H-indazol-7-yl)-1-(4-(trifluoromethyl)pyridin-2-yl-5-d)-1H-pyrazole-4-sulfonamide], the IC50 (in general, the concentration that inhibits the measured activity by half) on Avi-tagged FL MALT-1 is at most 400 nM; in assay [1] (setting [2]), under 400 nM.
For `CN1CC(c2ccnc(-n3cc(S(=O)(=O)Nc4cccc5cnn(C)c45)cn3)c2)C1` [Compound I-325], in that order: over 2500 nM and over 2500 nM.
For `COc1ccc2cnn(C)c2c1NS(=O)(=O)c1cnn(-c2ccc(C(F)(F)F)cn2)c1` [Compound I-22, N-(6-Methoxy-1-Methyl-1H-Indazol-7-yl)-1-(5-(Trifluoromethyl)Pyridin-2-yl)-1H-Pyrazole-4-Sulfonamide], in that order: at most 400 nM and under 400 nM.
The matching figures for `COc1ccc2cnn(C)c2c1NS(=O)(=O)c1cnn(-c2cnn3c2CN(C)CC3)c1` [Compound I-468, N-(6-methoxy-1-methylindazol-7-yl)-1-{5-methyl-4H,6H,7H-pyrazolo[1,5-a]pyrazin-3-yl}pyrazole-4-sulfonamide]: over 2500 nM and over 2500 nM.
In the case of `CCc1ccc2cnn(C)c2c1NS(=O)(=O)c1cnn(-c2cc(C(C)(C)O)ccn2)c1` [Compound I-274, N-(6-ethyl-1-methyl-1H-indazol-7-yl)-1-(4-(2-hydroxypropan-2-yl)pyridin-2-yl)-1H-pyrazole-4-sulfonamide], the results for the IC50 (against Avi-tagged FL MALT-1; in assay [1] (setting [2])) were at most 400 nM and under 400 nM, respectively.
For `Cc1n[nH]c2cccc(NS(=O)(=O)c3cnn(-c4cc(C5(O)COC5)ccn4)c3)c12` [Compound I-243], the IC50 is over 2500 nM against Avi-tagged FL MALT-1 and 1000 to 2500 nM in assay [1] (setting [3]).
For `COC[C@@H](OC)c1ccnc(-n2cc(S(=O)(=O)Nc3cccc4cnn(C)c34)cn2)c1` [Compound I-341], the IC50 is over 2500 nM against Avi-tagged FL MALT-1 and under 400 nM in assay [1] (setting [2]).
`Cn1ncc2cccc(NS(=O)(=O)c3cnn(-c4cc(C5(O)CC(C)(C)C5)ccn4)c3)c21` [Compound I-477, 1-(4-(1-hydroxy-3,3-dimethylcyclobutyl)pyridin-2-yl)-N-(1-methyl-1H-indazol-7-yl)-1H-pyrazole-4-sulfonamide]: the values for the IC50 (against Avi-tagged FL MALT-1; in assay [1] (setting [2])) were over 2500 nM and under 400 nM, respectively.
For `COc1ncc2cnn(C)c2c1NS(=O)(=O)c1cnn(-c2cc(N3CC[C@@H](C)C3)ccn2)c1` [Compound I-420], in that order: over 2500 nM and under 400 nM.
The matching figures for `C#Cc1ccc2cnn(C)c2c1NS(=O)(=O)c1cnn(-c2ccnc(C(F)(F)F)c2)c1` [Compound I-8, N-(6-Ethynyl-1-Methylindazol-7-yl)-1-(2-(Trifluoromethyl) Pyridin-4-yl)-Pyrazole-4-Sulfonamide]: at most 400 nM and 400 to 1000 nM.
Regarding `CC(C)Oc1ccc2cnn(C)c2c1NS(=O)(=O)c1cnn(-c2ccnc(C(F)(F)F)c2)c1` [Compound I-10, N-(6-Isopropoxy-1-Methyl-1H-Indazol-7-yl)-1-(2-(Trifluoromethyl)Pyridin-4-yl)-1H-Pyrazole-4-Sulfonamide], the IC50 against Avi-tagged FL MALT-1 is at most 400 nM; in assay [1] (setting [2]) it was 400 to 1000 nM.
Consider `O=S(=O)(Nc1cccc2cnn(C(F)F)c12)c1cnn(-c2cc(C(F)(F)F)ccn2)c1` [Compound I-239], for which the IC50 (at Avi-tagged FL MALT-1; in assay [1] (setting [2])) was over 2500 nM throughout.
For the molecule `CCc1ccc2cnn(C)c2c1NS(=O)(=O)c1cnn(-c2ccnc(C(F)(F)F)c2)c1` [Compound I-2, N-(6-Ethyl-1-Methyl-1H-Indazol-7-yl)-1-(2-(Trifluoromethyl) Pyridin-4-yl)-1H-Pyrazole-4-Sulfonamide], the results for the IC50 (at Avi-tagged FL MALT-1; in assay [1] (setting [2])) were at most 400 nM and under 400 nM, respectively.
Regarding `Cc1n[nH]c2cccc(NS(=O)(=O)c3cnn(-c4cc(C(C)(C)O)ccn4)c3)c12` [Compound I-245], the IC50 against Avi-tagged FL MALT-1 was over 2500 nM; in assay [1] (setting [3]), under 400 nM.
Regarding `Cn1ncc2cccc(NS(=O)(=O)c3cnn(-c4cc(Cl)ccn4)c3)c21` [Compound I-86, 1-(4-Chloropyridin-2-yl)-N-(1-Methyl-1H-Indazol-7-yl)-1H-Pyrazole-4-Sulfonamide], the figures for the 50% inhibitory concentration (IC50) (against Avi-tagged FL MALT-1; in assay [1] (setting [2])) were over 2500 nM and under 400 nM, respectively.
The matching figures for `CCc1ccc2cnn(C)c2c1NS(=O)(=O)c1cnn(-c2cc(C3CC3)ccn2)c1` [Compound I-56, 1-(4-Cyclopropylpyridin-2-yl)-N-(6-Ethyl-1-Methyl-1H-Indazol-7-yl)-1H-Pyrazole-4-Sulfonamide]: at most 400 nM and under 400 nM.
The matching figures for `[2H]C([2H])([2H])c1ccc2cnn(C)c2c1NS(=O)(=O)c1cnn(-c2cc(C(F)(F)F)ccn2)c1` [Compound I-71, N-(1-Methyl-6-(Methyl-D3)-1H-Indazol-7-yl)-1-(4-(Trifluoromethyl)Pyridin-2-yl)-1H-Pyrazole-4-Sulfonamide]: at most 400 nM and under 400 nM.
For `CCC(O)(CC)c1ccnc(-n2cc(S(=O)(=O)Nc3cccc4cnn(C)c34)cn2)c1` [Compound I-276], in that order: over 2500 nM and under 400 nM.
Regarding `COc1ncc2cnn(C)c2c1NS(=O)(=O)c1cnn(-c2cc(C3(OC)COC3)ccn2)c1` [Compound I-125, N-{6-methoxy-1-methylpyrazolo [4,3-c]pyridin-7-yl}-1-[4-(3-methoxyoxetan-3-yl)pyridin-2-yl]pyrazole-4-sulfonamide], the IC50 against Avi-tagged FL MALT-1 was at most 400 nM; in assay [1] (setting [2]), under 400 nM.
As to `COc1ncc2cnn(C)c2c1NS(=O)(=O)c1cnn(-c2cc(N3CCC3)ccn2)c1` [Compound I-388, 1-[4-(azetidin-1-yl)pyridin-2-yl]-N-{6-methoxy-1-methylpyrazolo[4,3-c]pyridin-7-yl}pyrazole-4-sulfonamide], the results for the IC50 (against Avi-tagged FL MALT-1; in assay [1] (setting [2])) were 400 to 1000 nM and under 400 nM, respectively.
For `CC1CN(c2ccnc(-n3cc(S(=O)(=O)Nc4cccc5cnn(C)c45)cn3)c2)C1` [Compound I-356, N-(1-methyl-1H-indazol-7-yl)-1-(4-(3-methylazetidin-1-yl)pyridin-2-yl)-1H-pyrazole-4-sulfonamide], in that order: over 2500 nM and under 400 nM.
`COc1ncc2cnn(C)c2c1NS(=O)(=O)c1cnn(-c2cc(N3CC[C@H](C)C3)ccn2)c1` [Compound I-419]: the IC50 is over 2500 nM on Avi-tagged FL MALT-1 and under 400 nM in assay [1] (setting [2]).
For `[2H]C([2H])([2H])Oc1ccc2cnn(C([2H])([2H])[2H])c2c1NS(=O)(=O)c1cnn(-c2cc(C(F)(F)F)ccn2)c1` [Compound I-476, N-(6-(methoxy-d3)-1-(methyl-d3)-1H-indazol-7-yl)-1-(4-(trifluoromethyl)pyridin-2-yl)-1H-pyrazole-4-sulfonamide], in that order: at most 400 nM and under 400 nM.
With `Cn1ncc2cccc(NS(=O)(=O)c3cnn(-c4cc(C5COC5)ccn4)c3)c21` [Compound I-264, N-(1-methylindazol-7-yl)-1-[4-(oxetan-3-yl)pyridin-2-yl]pyrazole-4-sulfonamide], the values for the IC50 (against Avi-tagged FL MALT-1; in assay [1] (setting [2])) were over 2500 nM and under 400 nM, respectively.
With `O=S(=O)(c1cnn(-c2cc(C(F)(F)F)ccn2)c1)N1CCCCn2ncc3cccc1c32` [Compound I-396, 1-((1-(4-(trifluoromethyl)pyridin-2-yl)-1H-pyrazol-4-yl)sulfonyl)-2,3,4,5-tetrahydro-1H-[1,4]diazocino[3,2,1-hi]indazole], the IC50 was over 2500 nM against Avi-tagged FL MALT-1 and over 2500 nM in assay [1] (Homo sapiens, Jurkat).
For the molecule `Cn1ncc2cccc(NS(=O)(=O)c3cnn(-c4cc(C5CCO5)ccn4)c3)c21` (stereo not drawn) [Compound I-265, N-(1-methylindazol-7-yl)-1-[4-(oxetan-2-yl)pyridin-2-yl]pyrazole-4-sulfonamide], the IC50 at Avi-tagged FL MALT-1 was over 2500 nM; in assay [1] (setting [2]) it was under 400 nM.
For the molecule `COc1ccc2cnn(C)c2c1NS(=O)(=O)c1cnn(-c2cc(N3CCCC3)ccn2)c1` [Compound I-381, N-(6-methoxy-1-methylindazol-7-yl)-1-[4-(pyrrolidin-1-yl)pyridin-2-yl]pyrazole-4-sulfonamide], the IC50 is 400 to 1000 nM against Avi-tagged FL MALT-1 and under 400 nM in assay [1] (setting [2]).
The matching figures for `Cc1c(S(=O)(=O)Nc2cccc3cnn(C)c23)cnn1-c1cc(C(F)(F)F)ccn1` [Compound I-137, 5-methyl-N-(1-methyl-1H-indazol-7-yl)-1-(4-(trifluoromethyl)pyridin-2-yl)-1H-pyrazole-4-sulfonamide]: 400 to 1000 nM and under 400 nM.
The matching figures for `COCC(O)(COC)c1ccnc(-n2cc(S(=O)(=O)Nc3cccc4cnn(C)c34)cn2)c1` [Compound I-257, 1-(4-(2-Hydroxy-1,3-Dimethoxypropan-2-yl)Pyridin-2-yl)-N-(1-Methyl-1H-Indazol-7-yl)-1H-Pyrazole-4-Sulfonamide]: over 2500 nM and 1000 to 2500 nM.
The matching figures for `CCCc1ccc2cnn(C)c2c1NS(=O)(=O)c1cnn(-c2ccnc(C(F)(F)F)c2)c1` [Compound I-38, N-(1-Methyl-6-Propyl-1H-Indazol-7-yl)-1-(2-(Trifluoromethyl) Pyridin-4-yl)-1H-Pyrazole-4-Sulfonamide]: at most 400 nM and under 400 nM.
